Laboratory results from patent US20240140966A1, “AMORPHOUS AND CRYSTALLINE FORMS OF MCL-1 ANTAGONISTS” (AMGEN INC., priority 2022, published 2024).
Entries after “also recorded” stand apart in the source; their conditions may differ.

Key:
[1] = Moisture sorption (DVS); type: physicochemical; conditions: for hygroscopicity (in words): DVS up to 95% RH; for XRPD of the post-DVS material: after DVS cycle
Description: Moisture Sorption: Moisture sorption data was collected at 25° C. using a VTI vapor sorption analyzer. A sample size of approximately 4-10 mg was used in a standard platinum pan. Hygroscopicity was evaluated from 5 to 95% RH in increments of 5% RH. Data for adsorption and desorption cycles were collected. Equilibrium criteria were set at 0.001% weight change in 10 minute with a maximum equilibration time of 180 minutes.

[2] = Solid state stability assessment under accelerated conditions; type: physicochemical; conditions: for XRPD after solid state physical stability assessment: 8 weeks under stress conditions; for chemical and physical stability after 8 weeks: 25° C./60% RH (open), 40° C. (closed), 60° C. (closed), 40° C./75% RH (open)
Description: Solid state stability assessment of AMG 176 Form 1 was conducted at 25° C./60% RH (open), 40° C. (closed), 60° C. (closed), and 40° C./75% RH (open) accelerated conditions to determine the chemical and physical stability of AMG 176.
Solid state stability assessment of AMG 176 amorphous material and Form 1 was conducted at 25° C./60% RH (open), 40° C. (closed), 60° C. (closed), and 40° C./75% RH (open) accelerated conditions to determine the chemical and physical stability of AMG 176.

[3] = Dog PK studies, amorphous versus crystalline suspension; type: in vivo; conditions: AMG 176 dosed as an amorphous suspension as compared to the crystalline suspension
Excerpt: AMG 176 Form 1 has acceptable pharmaceutical and physical properties, can be scaled to kilogram quantities, and can be compounded during drug product formulating as an in situ sodium salt to achieve desired drug concentrations to enable IV delivery. AMG 176 can also be converted to amorphous material to support oral dosing, if desired, depending on the dosing range. […] While improved exposures were observed by dosing the amorphous material, the exposures would likely plateau if gram level doses are need for oral delivery.

[4] = DVS, 25° C., adsorption 5% to 95% RH

water vapor uptake between 5% and 95% RH [1, 4] [%]	XRPD of the post-DVS material [1]	XRPD after solid state physical stability assessment ([2]; listed as crystalline Form 1 of AMG 176)	chemical and physical stability after 8 weeks [2]	improvement of absorption [3] [×]	water vapor uptake (weight gain) between 5% and 95% RH [1, 4] [wt %]	water vapor uptake (weight gain) between 5% and 95% RH ([1]; DVS, 25° C., adsorption 5% to 95% RH, listed as amorphous form of AMG 176)	weight gain at 95% RH ([1]; DVS, 95% relative humidity) [%]	weight lost upon desorption ([1]; DVS, desorption cycle, likely loss of residual DCM and/or water) [%]	XRPD of the post-DVS material ([1]; listed as amorphous form of AMG 176)	XRPD after solid state physical stability assessment [2]	Compound	hygroscopicity (in words) [1]
0.3	no form change	Form conversion was not observed	physically and chemically stable								CO[C@H]1/C=C/C[C@H](C)[C@@H](C)S(=O)(=O)NC(=O)c2ccc3c(c2)N(C[C@@H]2CC[C@H]21)C[C@@]1(CCCc2cc(Cl)ccc21)CO3 [AMG 176 Form 1]	low hygroscopicity; also recorded: non-hygroscopic
				10							CO[C@H]1/C=C/C[C@H](C)[C@@H](C)S(=O)(=O)NC(=O)c2ccc3c(c2)N(C[C@@H]2CC[C@H]21)C[C@@]1(CCCc2cc(Cl)ccc21)CO3 [AMG 176, (1S,3′R,6′R,7′S,8′E,11′S,12′R)-6-chloro-7′-methoxy-11′,12′-dimethyl-3,4-dihydro-2H,15′H-spiro[naphthalene-1,22′-[20]oxa[13]thia[1,14]diazatetracyclo[14.7.2.0^3,6.O^19,24]pentacosa[8,16,18,24]tetraen]-15′-one 13′,13′-dioxide]	
	consistent with amorphous material		physically and chemically stable		0.95	about 0.95 wt %	0.95	1.59	consistent with amorphous material	Crystallization not observed	CO[C@H]1/C=C/C[C@H](C)[C@@H](C)S(=O)(=O)NC(=O)c2ccc3c(c2)N(C[C@@H]2CC[C@H]21)C[C@@]1(CCCc2cc(Cl)ccc21)CO3 [Amorphous AMG 176]	limited hygroscopicity
